The source of these data is patent publication US11292791B2 (priority 2017, dated 2022).

Where two headings read alike, the source gives them in different places.

The target in experiment [1] is T1, BRD4 (Homo sapiens (Human), UniProt O60885). Nature of the experiment: biochemical. The settings on record: BRD4 IC50 (μM gmean).
Experiment [2] addresses T1, BRD4. The settings on record: read-out: BRD4 IC50 (μM gmean).

As for `COC(=O)N1c2ccc3c(nc(Cc4ccccc4)n3CCC(N)=O)c2CC[C@@H]1C` [Example 289, methyl (7S)-2-benzyl-3-(2-carbamoylethyl)-7-methyl-3H,6H,7H,8H,9H-imidazo[4,5-f]quinoline-6-carboxylate], the IC50 against BRD4 [1] is 1 to 1000 µM.
On to `COC(=O)N1c2ccc3c(nc(C(C)Cn4cccn4)n3C3CCCS(=O)(=O)C3)c2CC[C@@H]1C` (stereo partly drawn) [Example 860], for which, on BRD4 [2], the IC50 lay in the range of 1 to 1000 µM.
On the same count and under the same terms, the same measure for `COC(=O)N1c2ccc3c(nc(C(C)Cn4cc(C(F)F)cn4)n3C3CCCC(C(=O)O)C3)c2CC[C@@H]1C` (stereo partly drawn) [Example 862]: 1 to 1000 µM; for `COC(=O)N1c2ccc3c(nc(CC4CCOCC4)n3[C@@H]3CCC[C@@H](C(=O)O)C3)c2CC[C@@H]1C` [Example 863]: 1 to 1000 µM; for `COC(=O)N1c2ccc3c(nc(C(C)Cc4cnn(C)c4)n3C3CCCC(C(=O)O)C3)c2CC[C@@H]1C` (stereo partly drawn) [Example 867]: 1 to 1000 µM.
Consider `COC(=O)N1c2ccc3c(nc(CC(C(=O)O)c4cccc(C(F)F)c4)n3C3CCCOC3)c2CC[C@@H]1C` (stereo partly drawn) [Example 868], for which the concentration for half-maximal inhibition (IC50) on BRD4 [2] lay in the range of 1 to 1000 µM.
On the same count and under the same terms, as for `COC(=O)N1c2ccc3c(nc(CC(C(=O)O)c4ccc5ccccc5c4)n3C3CCCOC3)c2CC[C@@H]1C` (stereo partly drawn) [Example 870], the figure is 1 to 1000 µM.
The same measure, in the same setting: the same measure for `COC(=O)N1c2ccc3c(nc(CCn4ccccc4=O)n3[C@@H]3CCC[C@@H](C(=O)O)C3)c2CC[C@@H]1C` [Example 871]: 1 to 1000 µM; for `COC(=O)N1c2ccc3c(nc(CC(C(=O)O)c4ccc(C)cc4)n3C3CCCOC3)c2CC[C@@H]1C` (stereo partly drawn) [Example 872]: 1 to 1000 µM; for `COC(=O)N1c2ccc3c(nc(Nc4ccc(F)cc4)n3[C@@H]3CCC[C@@H](C(=O)O)C3)c2CC[C@@H]1C` [Example 876]: 1 to 1000 µM.
Take `COC(=O)N1c2ccc3c(nc(C(C)Cn4cccn4)n3C3CCCC(C(=O)O)C3)c2CC[C@@H]1C` (stereo partly drawn) [Example 878]: on BRD4 [2], the half-inhibitory concentration (IC50) lay in the range of 1 to 1000 µM.
`COC(=O)N1c2ccc3c(nc(Nc4ccc(F)cc4)n3[C@H]3CC[C@H](C(=O)O)CC3)c2CC[C@@H]1C` [Example 880]: on BRD4 [2], the IC50 was 1 to 1000 µM.
In the case of `COC(=O)N1c2ccc3c(nc(S(=O)(=O)Cc4ccccc4)n3[C@H]3CC[C@H](C(=O)O)CC3)c2CC[C@@H]1C` [Example 882], on BRD4 [2], the IC50 lay within 1 to 1000 µM.
Turning to `COC(=O)N1c2ccc3c(nc(CC(C(=O)O)c4cccc(C)c4)n3C3CCCOC3)c2CC[C@@H]1C` (stereo partly drawn) [Example 885], the half-maximal inhibitory concentration (IC50) at BRD4 [2] was in the range of 1 to 1000 µM.
Same read-out and setting: the same measure for `COC(=O)N1c2ccc3c(nc(C(C)Oc4cnccn4)n3C3CCC(C(=O)O)CC3)c2CC[C@@H]1C` (stereo partly drawn) [Example 887]: 1 to 1000 µM; for `COC(=O)N1c2ccc3c(nc(CC(C(=O)O)c4ccc(C(C)C)cc4)n3C3CCCOC3)c2CC[C@@H]1C` (stereo partly drawn) [Example 888]: 1 to 1000 µM.
Same read-out and setting: as for `COC(=O)N1c2ccc3c(nc(CC(C(=O)O)c4ccccc4)n3C3COCC(F)(F)C3)c2CC[C@@H]1C` (stereo partly drawn) [Example 891], the figure is 1 to 1000 µM; as for `COC(=O)N1c2ccc3c(nc(CC4CCN(C(C)=O)CC4)n3[C@@H]3CCC[C@@H](C(=O)O)C3)c2CC[C@@H]1C` [Example 892], 1 to 1000 µM; as for `COC(=O)N1c2ccc3c(nc(C(C)Cc4cnn(C)c4)n3C3CCC(C(=O)O)CC3)c2CC[C@@H]1C` (stereo partly drawn) [Example 894], 1 to 1000 µM.
The same measure, in the same setting: the same measure for `COC(=O)N1c2ccc3c(nc(S(=O)(=O)c4ccccc4)n3[C@H]3CC[C@H](C(=O)O)CC3)c2CC[C@@H]1C` [Example 895]: 1 to 1000 µM; for `COC(=O)N1c2ccc3c(nc(CC(=O)N4CCCCC4)n3[C@@H]3CCC[C@@H](C(=O)O)C3)c2CC[C@@H]1C` [Example 896]: 1 to 1000 µM; for `COC(=O)N1c2ccc3c(nc(CC(C(=O)O)c4ccc(Cl)cc4)n3C3CCCOC3)c2CC[C@@H]1C` (stereo partly drawn) [Example 900]: 1 to 1000 µM.
As for `COC(=O)N1c2ccc3c(nc(CC(C(=O)O)c4ccc(C(F)F)cc4)n3C3CCCOC3)c2CC[C@@H]1C` (stereo partly drawn) [Example 901], the IC50 on BRD4 [2] lay within 1 to 1000 µM.
`COC(=O)N1c2ccc3c(nc(CC(C(=O)O)c4ccc(C(F)F)cc4)n3C3CCCOC3)c2CC[C@@H]1C` (stereo partly drawn) [Example 902]: the 50% inhibitory concentration (IC50) on BRD4 [2] is 1 to 1000 µM.
Same read-out and setting: the same measure for `COC(=O)N1c2ccc3c(nc(CC(C(=O)O)c4ccccc4)n3C3COCC(F)(F)C3)c2CC[C@@H]1C` (stereo partly drawn) [Example 903]: 1 to 1000 µM; for `COC(=O)N1c2ccc3c(nc(CC(C(=O)O)c4ccc(C5CC5)cc4)n3C3CCCOC3)c2CC[C@@H]1C` (stereo partly drawn) [Example 904]: 1 to 1000 µM.
The same measure, in the same setting: the same measure for `COC(=O)N1c2ccc3c(nc(CC(C(=O)O)c4ccccc4)n3-c3cccc(C#N)c3)c2CC[C@@H]1C` (stereo partly drawn) [Example 905]: 1 to 1000 µM; for `COC(=O)N1c2ccc3c(nc([C@H](C)Cn4cc(Cl)cn4)n3[C@H]3CC[C@H](C(=O)O)CC3)c2CC[C@@H]1C` [Example 907]: 1 to 1000 µM; for `COC(=O)N1c2ccc3c(nc(Oc4ccccc4)n3[C@H]3CC[C@H](C(=O)O)CC3)c2CC[C@@H]1C` [Example 908]: 1 to 1000 µM.
Same read-out and setting: as for `COC(=O)N1c2ccc3c(nc(Nc4c(C)n[nH]c4C)n3[C@H]3CC[C@H](C(=O)O)CC3)c2CC[C@@H]1C` [Example 909], the figure is 1 to 1000 µM; as for `COC(=O)N1c2ccc3c(nc(C(C)Cn4cc(C(F)F)cn4)n3C3CCC(C(=O)O)CC3)c2CC[C@@H]1C` (stereo partly drawn) [Example 912], 1 to 1000 µM; as for `COC(=O)N1c2ccc3c(nc(CC(C(=O)O)c4ccc(C)cc4)n3C3COCC(F)(F)C3)c2CC[C@@H]1C` (stereo partly drawn) [Example 913], 1 to 1000 µM.
Turning to `COC(=O)N1c2ccc3c(nc(CC(C(=O)O)c4ccccc4)n3-c3ccc(C#N)cc3)c2CC[C@@H]1C` (stereo partly drawn) [Example 914], the IC50 on BRD4 [2] was 1 to 1000 µM.
Still for that read-out and setting: as for `COC(=O)N1c2ccc3c(nc(Nc4cc(C)nn4C)n3[C@H]3CC[C@H](C(=O)O)CC3)c2CC[C@@H]1C` [Example 915], the figure is 1 to 1000 µM.
As to `COC(=O)N1c2ccc3c(nc(Nc4cc(C)nn4C)n3[C@@H]3CCC[C@@H](C(=O)O)C3)c2CC[C@@H]1C` [Example 916], at BRD4 [2], the half-inhibitory concentration (IC50) fell in the range of 1 to 1000 µM.
Same read-out and setting: the same measure for `COC(=O)N1c2ccc3c(nc(C(C)Cn4cccn4)n3C3CCC(C(=O)O)CC3)c2CC[C@@H]1C` (stereo partly drawn) [Example 917]: 1 to 1000 µM; for `COC(=O)N1c2ccc3c(nc(C(C)Cn4cc(C)cn4)n3C3CCC(C(=O)O)CC3)c2CC[C@@H]1C` (stereo partly drawn) [Example 918]: 1 to 1000 µM; for `COC(=O)N1c2ccc3c(nc(CC(C(=O)O)c4ccc(C(F)F)cc4)n3C3COCC(F)(F)C3)c2CC[C@@H]1C` (stereo partly drawn) [Example 920]: 1 to 1000 µM.
In the case of `COC(=O)N1c2ccc3c(nc(C(=O)NC4CCCC4)n3[C@@H]3CCC[C@@H](C(=O)O)C3)c2CC[C@@H]1C` [Example 922], the IC50 at BRD4 [2] lay in the range of 1 to 1000 µM.
Same read-out and setting: the same measure for `COC(=O)N1c2ccc3c(nc(C(=O)N(C)C4CCCC4)n3[C@@H]3CCC[C@@H](C(=O)O)C3)c2CC[C@@H]1C` [Example 923]: 1 to 1000 µM; for `COC(=O)N1c2ccc3c(nc(C(C)Cn4cc(Cl)cn4)n3C3CCS(=O)(=O)C3)c2CC[C@@H]1C` (stereo partly drawn) [Example 926]: 1 to 1000 µM.
The same measure, in the same setting: the same measure for `COC(=O)N1c2ccc3c(nc(CC(C(=O)O)c4ccc(C)cc4)n3C3COCC(F)(F)C3)c2CC[C@@H]1C` (stereo partly drawn) [Example 927]: 1 to 1000 µM.
For the compound `COC(=O)N1c2ccc3c(nc(C(C)Cc4cnn(C)c4)n3C3CCNCC3)c2CC[C@@H]1C` (stereo partly drawn) [Example 928], the concentration for half-maximal inhibition (IC50) on BRD4 [2] was 1 to 1000 µM.
On the same count and under the same terms, the same measure for `COC(=O)N1c2ccc3c(nc(C(C)Cn4cc(Cl)cn4)n3C3CCS(=O)(=O)C3)c2CC[C@@H]1C` (stereo partly drawn) [Example 930]: 1 to 1000 µM; for `COC(=O)N1c2ccc3c(nc(Nc4ccncc4F)n3[C@H]3CC[C@H](C(=O)O)CC3)c2CC[C@@H]1C` [Example 933]: 1 to 1000 µM; for `COC(=O)N1c2ccc3c(nc(C(=O)N(C)c4ccccc4)n3[C@@H]3CCC[C@@H](C(=O)O)C3)c2CC[C@@H]1C` [Example 934]: 1 to 1000 µM.
On the same count and under the same terms, the same measure for `COC(=O)N1c2ccc3c(nc(CCn4cccn4)n3CCN3CCNCC3)c2CC[C@@H]1C` [Example 935]: 1 to 1000 µM; for `COC(=O)N1c2ccc3c(nc(CC(C(=O)O)c4ccc(C(F)F)cc4)n3C3COCC(F)(F)C3)c2CC[C@@H]1C` (stereo partly drawn) [Example 937]: 1 to 1000 µM.
Regarding `COC(=O)N1c2ccc3c(nc(C(=O)N(C)C4CCCCC4)n3[C@@H]3CCC[C@@H](C(=O)O)C3)c2CC[C@@H]1C` [Example 939], the IC50 at BRD4 [2] was in the range of 1 to 1000 µM.
For `COC(=O)N1c2ccc3c(nc(Nc4ccncc4F)n3[C@@H]3CCC[C@@H](C(=O)O)C3)c2CC[C@@H]1C` [Example 941], the IC50 at BRD4 [2] is 1 to 1000 µM.
For `COC(=O)N1c2ccc3c(nc(Nc4ccnc(C)c4)n3[C@H]3CC[C@H](C(=O)O)CC3)c2CC[C@@H]1C` [Example 943], at BRD4 [2], the IC50 lay in the range of 1 to 1000 µM.
Regarding `COC(=O)N1c2ccc3c(nc(C(C)Cn4cccn4)n3C3CCS(=O)(=O)CC3)c2CC[C@@H]1C` (stereo partly drawn) [Example 946], on BRD4 [2], the IC50 lay within 1 to 1000 µM.
For the compound `COC(=O)N1c2ccc3c(nc(C(C)Cc4ccccc4)n3C3CCNCC3)c2CC[C@@H]1C` (stereo partly drawn) [Example 947], the IC50 at BRD4 [2] was in the range of 1 to 1000 µM.
For `COC(=O)N1c2ccc3c(nc(C(=O)Nc4ccccc4)n3[C@@H]3CCC[C@@H](C(=O)O)C3)c2CC[C@@H]1C` [Example 948], at BRD4 [2], the half-inhibitory concentration (IC50) lay in the range of 1 to 1000 µM.
For `COC(=O)N1c2ccc3c(nc(C(C)Cn4cc(C)cn4)n3C3CCS(=O)(=O)C3)c2CC[C@@H]1C` (stereo partly drawn) [Example 949], the IC50 on BRD4 [2] was 1 to 1000 µM.
Take `COC(=O)N1c2ccc3c(nc(C(C)Cc4cnn(C)c4)n3C3CCNCC3)c2CC[C@@H]1C` (stereo partly drawn) [Example 951]: at BRD4 [2], the IC50 lay in the range of 1 to 1000 µM.
Turning to `COC(=O)N1c2ccc3c(nc(C(C)Cn4cccn4)n3C3CCS(=O)(=O)C3)c2CC[C@@H]1C` (stereo partly drawn) [Example 955], the IC50 on BRD4 [2] fell in the range of 1 to 1000 µM.
In the case of `COC(=O)N1c2ccc3c(nc(C(C)Cn4cccn4)n3C3CCS(=O)(=O)C3)c2CC[C@@H]1C` (stereo partly drawn) [Example 956], on BRD4 [2], the 50% inhibitory concentration (IC50) fell in the range of 1 to 1000 µM.
Regarding `COC(=O)N1c2ccc3c(nc(C(C)Cn4cc(C)cn4)n3C3CCS(=O)(=O)C3)c2CC[C@@H]1C` (stereo partly drawn) [Example 958], at BRD4 [2], the IC50 was 1 to 1000 µM.
Take `COC(=O)N1c2ccc3c(nc(C(=O)Nc4ccccc4Cl)n3[C@@H]3CCC[C@@H](C(=O)O)C3)c2CC[C@@H]1C` [Example 961]: the IC50 at BRD4 [2] lay in the range of 1 to 1000 µM.
